Like-named read-outs stand apart in the source and are kept apart here. Blank lines part the entries; values can stand above or below the molecule they belong to.
Experiments:
recombinant human PFK-P = target: T1, recombinant human PFK-P (Homo sapiens, UniProt Q01813); assay: ALDO-TIM-G3PDH enzyme-linked kinetic assay, PFK-P; assay type: biochemical; conditions: for K0.5F6P + modulator / VmaxF6P + modulator: ATP 0.5mM; for K0.5F6P + modulator / VmaxF6P + modulator / K0.5ATP + modulator / VmaxATP + modulator: N=3, mean (SD); for K0.5ATP + modulator / VmaxATP + modulator: F6P 4mM
T1 construct: made in house; host or cells: PFK-deficient Saccharomyces cerevisiae
T1 sequence (Q01813 1-784): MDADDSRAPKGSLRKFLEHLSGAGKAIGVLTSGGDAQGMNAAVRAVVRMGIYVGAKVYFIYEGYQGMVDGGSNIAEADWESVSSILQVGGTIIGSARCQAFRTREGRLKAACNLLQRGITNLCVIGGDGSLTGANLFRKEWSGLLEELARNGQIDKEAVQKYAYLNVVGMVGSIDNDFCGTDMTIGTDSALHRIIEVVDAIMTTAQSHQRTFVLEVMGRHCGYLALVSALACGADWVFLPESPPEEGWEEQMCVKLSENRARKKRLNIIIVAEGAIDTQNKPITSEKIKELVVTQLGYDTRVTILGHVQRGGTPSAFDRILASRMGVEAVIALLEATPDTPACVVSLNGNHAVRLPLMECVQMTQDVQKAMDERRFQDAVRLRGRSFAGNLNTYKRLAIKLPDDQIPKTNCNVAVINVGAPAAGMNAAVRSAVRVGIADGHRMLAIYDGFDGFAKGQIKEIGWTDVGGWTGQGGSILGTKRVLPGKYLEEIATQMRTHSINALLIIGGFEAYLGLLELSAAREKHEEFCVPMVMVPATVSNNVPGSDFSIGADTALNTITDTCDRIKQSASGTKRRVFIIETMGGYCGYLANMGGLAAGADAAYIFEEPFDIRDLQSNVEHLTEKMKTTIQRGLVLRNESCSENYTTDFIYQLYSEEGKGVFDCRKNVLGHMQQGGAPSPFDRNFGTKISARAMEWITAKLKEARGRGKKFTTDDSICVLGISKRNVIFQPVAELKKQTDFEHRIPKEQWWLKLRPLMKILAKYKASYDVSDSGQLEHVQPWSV
Method: (§1) Recombinant human PFKs were expressed in PFK-deficient Saccharomyces cerevisiae and purified using the methods described previously, adapting earlier materials and protocols. Production of PFK intended for use in ATP titration experiments used 1 mM F6P as a tetramer stabilising agent in protein purification and storage buffers. Production of PFK intended for use in F6P titration experiments used 1 mM ATP as a tetramer stabilising agent in protein purification and storage buffers. Experimental details on the purification and characterisation procedures including figures showing SDS–PAGE gels of the highly pure PFKs used in the kinetic experiments described in this work have been recently published.
(§2) Assay buffer consisted of 50 mM TEA, 100 mM KCl, 10 mM MgCl2, 1 mM Tris(2-carboxyethyl)phosphine hydrochloride (TCEP), 10% glycerol, pH 7.4. Assay mix consisted of 5 units/ml glycerol-3-phosphate dehydrogenase (G3PDH, Sigma–Aldrich G6880), 2.5 units/ml aldolase (Sigma–Aldrich A2714), 25 units/ml triosephosphate isomerase (TIM, Sigma–Aldrich T6258), and 1.25 mM NADH. ATP and F6P were obtained from Sigma–Aldrich (A2383 and F3627, respectively). For ATP titrations, 38 µl of buffer or ligand were added to a clear non-binding 96-well plate. 40 µl of assay mix containing 10 mM F6P (final concentration 4 mM) was added and the plate was incubated at 25°C for 5 min. An amount of 2 µl of PFK isoforms were added to each well from stock concentrations of 150 µg/ml and the reaction was immediately started with 20 µl of ATP at varying concentrations. For F6P titrations, 30 µl of buffer or ligand was added to a clear non-binding 96-well plate. An amount of 40 µl of assay mix containing 1.25 mM ATP (final concentration 0.5 mM) was added and the plate was incubated at 25°C for 5 min. An amount of 5 µl of PFK isoforms were added to each well from stock concentrations of 200 µg/ml and the reaction was immediately started with 20 µl F6P at varying concentrations. All ligands and substrates (including ATP) were used at pH 7.4. All metabolites were obtained from Sigma–Aldrich unless otherwise stated. […] A SpectraMax M5 Multi-Mode Microplate Reader was used to measure A340nm at 13 s intervals for 10 min. All experiments were performed in triplicate unless otherwise stated.
(§3) Time-dependent absorbance change was converted into rate of NADH oxidation (µM s^−1) or specific activity (µmol min^−1 mg protein^−1) using the Beer-Lambert law (molar extinction coefficient of NADH 6.22 mM^−1 cm^−1). The initial rate of reaction was used to avoid accumulation of ADP, which activates PFK, interfering with the determination of kinetic properties. Non-linear regression analysis was performed on substrate titration data using GraphPad Prism 7, with curves fitted using allosteric sigmoidal models, enabling determination of steady-state kinetic values.

PFK = test system: PFK; parameters: key to Effect (activator or inhibitor of PFK): “+” indicates activator; “-“ indicates inhibitor; conditions: cited from earlier work; for Effect (activator or inhibitor of PFK): published literature, ref selected references in Supplementary Table 1; for IC50 or AC50 (activator): asterisk not explained, ref Moreno-Sanchez et al., 2012
recombinant human PFK-L = target: T2, recombinant human PFK-L (Homo sapiens, UniProt P17858); assay: ALDO-TIM-G3PDH enzyme-linked kinetic assay, PFK-L; assay type: biochemical; conditions: PFK-L; for K0.5F6P + modulator / VmaxF6P + modulator: ATP 0.5mM; for K0.5F6P + modulator / VmaxF6P + modulator / K0.5ATP + modulator / VmaxATP + modulator: N=3, mean (SD); for K0.5ATP + modulator / VmaxATP + modulator: F6P 4mM
T2 construct: made in house; host or cells: PFK-deficient Saccharomyces cerevisiae
T2 sequence (P17858 1-780): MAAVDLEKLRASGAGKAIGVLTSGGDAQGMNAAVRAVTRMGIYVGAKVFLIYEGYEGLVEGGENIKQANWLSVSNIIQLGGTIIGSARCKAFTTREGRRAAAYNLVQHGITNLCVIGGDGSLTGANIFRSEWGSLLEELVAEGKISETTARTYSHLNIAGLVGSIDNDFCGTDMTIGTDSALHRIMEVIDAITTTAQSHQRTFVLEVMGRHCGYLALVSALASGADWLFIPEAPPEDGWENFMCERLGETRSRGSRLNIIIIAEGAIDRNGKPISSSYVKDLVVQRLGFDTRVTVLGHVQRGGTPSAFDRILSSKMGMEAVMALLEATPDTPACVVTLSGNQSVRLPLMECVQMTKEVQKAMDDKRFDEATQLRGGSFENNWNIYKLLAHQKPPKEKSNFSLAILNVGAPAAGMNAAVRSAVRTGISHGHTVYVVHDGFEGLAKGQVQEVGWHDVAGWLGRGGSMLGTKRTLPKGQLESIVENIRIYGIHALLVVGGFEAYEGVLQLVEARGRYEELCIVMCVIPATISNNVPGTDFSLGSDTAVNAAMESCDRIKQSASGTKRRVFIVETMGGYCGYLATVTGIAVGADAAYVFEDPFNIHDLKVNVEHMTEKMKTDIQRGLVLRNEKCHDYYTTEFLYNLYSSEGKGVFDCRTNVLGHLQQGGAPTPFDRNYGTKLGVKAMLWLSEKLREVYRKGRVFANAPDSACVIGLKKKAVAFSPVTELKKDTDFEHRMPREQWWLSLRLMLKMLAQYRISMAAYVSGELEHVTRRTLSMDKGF
Method: as §1, §2, §3

effect on PFK activity, in words (recombinant human PFK-P): activating
change in kcat^ATP/K0.5^ATP compared with control PFK without modulator (recombinant human PFK-P; modulator 600 µM): +39%
change in kcat^F6P/K0.5^F6P compared with control PFK without modulator (recombinant human PFK-P; modulator 600 µM): +129%
K0.5F6P + modulator (recombinant human PFK-P; modulator 600 µM): 821.7 (53.4) M
VmaxF6P + modulator (recombinant human PFK-P; modulator 600 µM): 2.51 (0.11) moles/min/mg
K0.5ATP + modulator (recombinant human PFK-P; modulator 600 µM): 290.5 (36.0) M
VmaxATP + modulator (recombinant human PFK-P; modulator 600 µM): 37.99 (1.74) moles/min/mg
effect on PFK activity, in words (recombinant human PFK-L): mixed effects
change in kcat^ATP/K0.5^ATP compared with control PFK without modulator (recombinant human PFK-L; modulator 600 µM): −47%
change in kcat^F6P/K0.5^F6P compared with control PFK without modulator (recombinant human PFK-L; modulator 600 µM): +157%
K0.5F6P + modulator (recombinant human PFK-L; modulator 600 µM): 872.9 (14.9) M
VmaxF6P + modulator (recombinant human PFK-L; modulator 600 µM): 5.65 (0.07) moles/min/mg
K0.5ATP + modulator (recombinant human PFK-L; modulator 600 µM): 362.0 (46.5) M
VmaxATP + modulator (recombinant human PFK-L; modulator 600 µM): 49.38 (2.48) moles/min/mg
Structure (SMILES): Nc1ncnc2c1ncn2[C@@H]1O[C@H](COP(=O)(O)OP(=O)(O)O)[C@@H](O)[C@H]1O [ADP]
Effect (activator or inhibitor of PFK) (PFK): +

decrease in K0.5^F6P by AMP (recombinant human PFK-P; F6P titration): two-fold decrease
change in kcat^ATP/K0.5^ATP compared with control PFK without modulator (recombinant human PFK-P; modulator 1200 µM): +220%
change in kcat^F6P/K0.5^F6P compared with control PFK without modulator (recombinant human PFK-P; modulator 1200 µM): +162%
K0.5F6P + modulator (recombinant human PFK-P; modulator 1200 µM): 607.0 (31.0) M
VmaxF6P + modulator (recombinant human PFK-P; modulator 1200 µM): 2.13 (0.06) moles/min/mg
K0.5ATP + modulator (recombinant human PFK-P; modulator 1200 µM): 94.4 (10.8) M
VmaxATP + modulator (recombinant human PFK-P; modulator 1200 µM): 28.38 (1.07) moles/min/mg
decrease in K0.5^F6P by AMP (recombinant human PFK-L; F6P titration): more than 5 fold
change in kcat^ATP/K0.5^ATP compared with control PFK without modulator (recombinant human PFK-L; modulator 1200 µM): +9%
change in kcat^F6P/K0.5^F6P compared with control PFK without modulator (recombinant human PFK-L; modulator 1200 µM): +766%
K0.5F6P + modulator (recombinant human PFK-L; modulator 1200 µM): 260.6 (8.2) M
VmaxF6P + modulator (recombinant human PFK-L; modulator 1200 µM): 5.68 (0.06) moles/min/mg
K0.5ATP + modulator (recombinant human PFK-L; modulator 1200 µM): 156.9 (17.6) M
VmaxATP + modulator (recombinant human PFK-L; modulator 1200 µM): 44.45 (1.74) moles/min/mg
Structure (SMILES): Nc1ncnc2c1ncn2[C@@H]1O[C@H](COP(=O)(O)O)[C@@H](O)[C@H]1O [AMP]
IC50 or AC50 (activator) (PFK; first of three values marked *): 860 µM
Effect (activator or inhibitor of PFK) (PFK): +
IC50 or AC50 (activator) (PFK; second of three values marked *): 5800 µM
IC50 or AC50 (activator) (PFK; third of three values marked *): 1550 µM
